Data from patent US6548540B2, “Method of treating cancer using dithiocarbamate derivatives” (Charlotte-Mecklenburg Hospital Authority, priority 1998, dated 2003).

System: p21WAF1/CIP1
Assay: Immunoblot for p21WAF1/CIP1
Assay type: cell-based, human
Conditions: cell lines studied; data not shown
Protocol: Cells were lysed and proteins were isolated and quantitated by immunoassay as previously detailed using 2 μg/ml of primary rabbit polyclonal antibodies against human bcl-2, p53, p21^WAF1/CiP1, cyclin A and cyclin B1, and peroxidase-labeled donkey polyclonal anti-rabbit IgG. Cells were placed on ice, washed twice with cold DPBS, scraped into 0.5 ml boiling buffer (10% [vol/vol] glycerol and 2% [wt/vol] sodium dodecyl sulfate [SDS] in 83 mM Tris, pH 6.8) and sheared by four passages through a pipette. Aliquots were removed for protein determination, using the BCA protein assay (Pierce). After 10% β-mercaptoethanol and 0.05% bromophenol blue were added, lysates were boiled for 5 min and stored at −80° C. until immunoblotting was performed. Proteins in defrosted samples were separated by SDS-polyacrylamide gel electrophoresis on 12% polyacrylamide gels (15 μg protein/lane) and electrotransferred to 0.45 μm Hybond ECL nitrocellulose membranes (Amersham Life Sciences) using the wet transblot method in transfer buffer (0.025 M Tris, 0.192 M glycine, 2.6 mM SDS, and 20%[vol/vol] methanol; pH 8.8) at 100 volts for 1 hour. […] Immunoblots were rinsed again as above and detected via an enhanced chemiluminescence method (ECL Western blotting detection system, Amersham Life Science, Buckinghamshire, England). […]

CCN(CC)C(=S)SSC(=S)N(CC)CC [Disulfiram, tetraethylthiuram disulfide]
expression of p21WAF1/CIP1: no consistent effect
